{
  "source": "patent US8846628B2",
  "about": "“Oral formulations of cytidine analogs and methods of use thereof” (Celgene Corporation, priority 2008, dated 2014)",
  "key": {"[1]": {"conditions": "in vivo"}, "[2]": {"test_system": "patients with MDS or AML", "conditions": "in vivo"}, "[3]": {"test_system": "patients with MDS or AML", "assay": "MTD study CL005: hematological response, IWG criteria", "type": "in vivo, human", "source_text": "Assessment of IWG criteria for certain patients in the MTD study is presented below in Table 10."}, "[4]": {"assay": "Rapid Aza Clinical Evaluation (RACE) study CL008: plasma PK", "type": "in vivo", "conditions": "human; for AUC(0-t) / AUC(0-inf): sc; for AUC(0-t): 75 mg/m^2, one subject (Formulation 4 cohort), SC 75 mg/m^2 (124 mg); for AUC(0-inf): SC 75 mg/m^2 (120 mg)", "experimental": "Several oral formulations were evaluated in this study. A “3+7” cohort of patients was enrolled in the study, i.e., three patients were initially tested per formulation, and the cohorts could increase in size up to ten patients. Cohorts were enrolled in parallel."}, "[5]": {"assay": "clinical", "conditions": "human, in vivo"}},
  "note": "“Also recorded” adds a separate entry of the source.",
  "data": [
    {"smiles": "Nc1ncn([C@@H]2O[C@H](CO)[C@@H](O)[C@H]2O)c(=O)n1", "note": "[azacitidine, 4-amino-1-β-D-ribofuranosyl-1,3,5-triazin-2(1H)-one]", "values": [
      {"measurement": "dose proportionality of exposure", "setting": "[1]", "value": "did not result in dose-proportional increase in exposure"},
      {"measurement": "dose limited toxicity (DLT)", "setting": "[2]", "value": "none of the patients have shown dose limited toxicity (DLT)"},
      {"measurement": "IWG Assessment", "setting": "[3]; Patient 02004 (MDS), SC cycle 1, then oral 120 mg x7d Formulation #1 Cycles 2-6, 180 mg x7d Cycles 7-12", "value": "morphologic complete response (CR); also recorded: Per IWG 2006 criteria, the patient achieved complete response (CR); also recorded: achieved morphologic complete response per the IWG AML criteria; also recorded: with regard to the ANC condition for the IWG 2000 CR criteria, the patient did not meet the criteria for a complete response; also recorded: CR per IWG 2006 (Days 45-98); also recorded: Morphologic CR per the IWG AML criteria (Diagnosis is MDS)"},
      {"measurement": "IWG Assessment", "setting": "[3]; Patient 02007 (CMML), Cohort 4, oral 240 mg Formulation #3 after SC cycle 1, per IWG 2000 criteria", "value": "HI-P major improvement per IWG 2000 (Days 35-202)"},
      {"measurement": "platelets versus baseline", "setting": "[3]; Patient 02007, oral azacitidine starting with cycle 2 (Formulation #3, 240 mg)", "value": "increase in platelets above the baseline levels"},
      {"measurement": "IWG Assessment", "setting": "[3]; Patient 02008 (MDS RAEB-1), Cohort 4, oral 240 mg Formulation #3 after SC cycle 1", "value": "HI-P major improvement per IWG 2000 (Days 34-110)"},
      {"measurement": "IWG Assessment", "setting": "[3]; Patient 02009 (MDS RAEB-2), Cohort 4, oral 240 mg Formulation #3 after SC cycle 1", "value": "Marrow CR (Days 7-111+) per IWG 2006"},
      {"measurement": "IWG Assessment", "setting": "[3]; Patient 02011 (MDS RAEB-1), Cohort 5, oral 300 mg Formulation #3 after SC cycle 1, per IWG 2006 criteria", "value": "Marrow CR (Days 7-177+) per IWG 2006"},
      {"measurement": "IWG Assessment", "setting": "[3]; Patient 02011 (MDS RAEB-1), Cohort 5, oral 300 mg Formulation #3 after SC cycle 1, per revised IWG AML criteria", "value": "Morphologic CR per the revised IWG AML criteria on Day 21"},
      {"measurement": "AUC", "setting": "[4]; 75 mg/m^2, one subject (Formulation 6 cohort), following SC dosing, read-out: AUC (rounded)", "value": "~1700", "unit": "ng·h/mL"},
      {"measurement": "AUC(0-t)", "setting": "[4]; day 1", "value": 2390, "unit": "ng·h/mL"},
      {"measurement": "AUC(0-t)", "setting": "[4]; day 15", "value": 2440, "unit": "ng·h/mL"},
      {"measurement": "AUC(0-inf)", "setting": "[4]; 75 mg/m^2, one subject (Formulation 6 cohort), day 1", "value": 1720, "unit": "ng·h/mL"},
      {"measurement": "AUC(0-inf)", "setting": "[4]; 75 mg/m^2, one subject (Formulation 6 cohort), day 15", "value": 1640, "unit": "ng·h/mL"},
      {"measurement": "AUC", "setting": "[5]; po, 180 mg", "value": 330, "unit": "ng·h/mL"},
      {"measurement": "bioavailability", "setting": "[5]; po, 180 mg", "value": 30, "unit": "%"},
      {"measurement": "AUC", "setting": "[5]; sc, 75 mg/m2", "value": 1000, "unit": "ng·h/mL"},
      {"measurement": "AUC(0-inf)", "setting": "[5]; sc, 75 mg/m2, AUC(0-inf)", "value": 1210, "unit": "ng·h/mL"},
      {"measurement": "AUC(0-t)", "setting": "[5]; sc, 75 mg/m2, AUC(0-t)", "value": 1140, "unit": "ng·h/mL"},
      {"measurement": "Cmax", "setting": "[5]; sc, 75 mg/m2, Cmax", "value": 697, "unit": "ng/mL"},
      {"measurement": "Tmax", "setting": "[5]; sc, 75 mg/m2, Tmax", "value": 0.51, "unit": "h"},
      {"measurement": "half-life", "setting": "[5]; sc, 75 mg/m2, t½", "value": 1.73, "unit": "h"}
    ]}
  ]
}
